Laboratory results reported in the NIST ThermoML archive (doi:10.1016/j.jct.2012.02.023).

Assay: xn = mol fraction of the nth substance listed
Settings: 101 kPa, Liquid; for speed of sound: Sing-around technique in a fixed-path interferometer; for mass density: Vibrating tube method

CCCC[n+]1cccc(C)c1.F[B-](F)(F)F [1-butyl-3-methylpyridinium tetrafluoroborate] + CCO
Settings	mass density, 293.15 K [kg/m3]	mass density, 303.15 K [kg/m3]	mass density, 313.15 K [kg/m3]	mass density, 323.15 K [kg/m3]	speed of sound, 293.15 K [m/s]	speed of sound, 303.15 K [m/s]	speed of sound, 313.15 K [m/s]	speed of sound, 323.15 K [m/s]
x1 = 0.0572	861.245	852.837	844.506	835.724	1206	1177	1146.5	1116.4
x1 = 0.0964	900.833	892.417	884.287	875.61	1239.4	1212.4	1183.6	1155.2
x1 = 0.1466	942.807	934.902	926.796	918.466	1281	1254.5	1228.4	1202
x1 = 0.1964	977.495	969.562	961.571	953.451	1320	1294.8	1269.1	1244.2
x1 = 0.2431	1004.66	996.702	988.807	980.836	1355.1	1330	1304.6	1279.3
x1 = 0.2998	1032.24	1024.76	1016.86	1009.22	1390.6	1365.5	1340.4	1315.4
x1 = 0.3966	1069.96	1062.42	1055	1047.46	1442.7	1417.4	1392.4	1366.2
x1 = 0.4984	1100.02	1092.8	1085.55	1078.03	1484.2	1459.2	1434.3	1409.9
x1 = 0.5931	1122.42	1115.36	1108.06	1100.95	1515.9	1491	1466.4	1442.2
x1 = 0.691	1141.63	–	1127.5	1120.36	1543.7	–	1494.9	1471.2
x1 = 0.8022	1159.85	–	1145.95	1138.97	1566.2	–	1517.2	1493.8
x1 = 0.8923	1172.56	–	1158.84	1151.94	1582.6	–	1534.7	1511.3
x1 = 0.9517	1180.05	–	1166.44	1159.62	1591.7	–	1543.7	1519.5

CCCC[n+]1ccc(C)cc1.F[B-](F)(F)F [1-butyl-4-methylpyridinium tetrafluoroborate] + CO
Settings	mass density, 293.15 K [kg/m3]	mass density, 303.15 K [kg/m3]	mass density, 313.15 K [kg/m3]	mass density, 323.15 K [kg/m3]	speed of sound, 293.15 K [m/s]	speed of sound, 303.15 K [m/s]	speed of sound, 313.15 K [m/s]	speed of sound, 323.15 K [m/s]
x1 = 0.0507	881.091	872.29	863.158	854.017	1208.6	1178.1	1148.1	1119.5
x1 = 0.0989	939.26	930.783	922.085	–	1271.8	1242.3	1214.2	–
x1 = 0.1922	1013.58	1005.46	997.343	989.026	1364.3	1337.8	1311.3	1289
x1 = 0.2934	1064.12	1056.34	1048.54	1040.72	1433.1	1409.5	1381.4	1361.5
x1 = 0.3877	1096.33	1088.9	1081.21	1073.75	1479.9	1455.9	1431.2	1407.8
x1 = 0.4839	1120.56	1113.33	1105.85	1098.72	1517	1490.9	1464.4	1439.8
x1 = 0.5909	1140.92	1133.83	1126.57	1119.63	1546.9	1521.3	1494.6	1471.5
x1 = 0.6925	1155.91	1148.93	1141.79	1134.99	1568.3	1543.5	1518.2	1494.6
x1 = 0.8001	1168.52	1161.62	1154.59	1147.87	1587.9	1563.2	1538.4	1516
x1 = 0.9042	1178.4	1171.56	1164.56	1157.92	1602.5	1577.6	1553.6	1531.3
x1 = 0.9535	1182.44	1175.62	1168.62	1162.01	1607.8	1583.1	1558.9	1536.3

CCCC[n+]1ccc(C)cc1.F[B-](F)(F)F [1-butyl-4-methylpyridinium tetrafluoroborate] + CCO
Settings	mass density, 293.15 K [kg/m3]	mass density, 303.15 K [kg/m3]	mass density, 313.15 K [kg/m3]	mass density, 323.15 K [kg/m3]	speed of sound, 293.15 K [m/s]	speed of sound, 303.15 K [m/s]	speed of sound, 313.15 K [m/s]	speed of sound, 323.15 K [m/s]
x1 = 0.0507	854.988	846.802	838.56	830.183	1206.5	1176.7	1147.1	1117.3
x1 = 0.1	904.491	896.578	888.401	880.152	1246.2	1219	1189.9	1162.1
x1 = 0.1971	976.866	969.284	961.403	953.269	1321.9	1296.3	1268.9	1240.4
x1 = 0.2912	1026.69	1019.31	1011.46	1003.86	1384.8	1359.2	1333.8	1308.5
x1 = 0.3903	1066.1	1058.84	1051.3	1043.95	1440.8	1415	1389.7	1364.8
x1 = 0.4876	1096.19	1088.98	1081.75	1074.66	1483.8	1457.9	1432.5	1408
x1 = 0.5825	1119.75	1112.72	1105.58	1098.5	1522.5	1496.8	1471.7	1446.7
x1 = 0.6879	1141.24	1134.29	–	1120.3	1548.5	1525.3	1499.5	1475.8
x1 = 0.7938	1159.02	1152.18	1145.03	1138.28	1576.1	1556	–	1502.9
x1 = 0.8927	1173	1166.2	1159.13	1152.42	1594.2	1569.1	–	1522.3
x1 = 0.9284	1177.54	1170.73	1163.69	1157	1601.9	1579.3	–	1530.5

CCCC[n+]1cccc(C)c1.F[B-](F)(F)F [1-butyl-3-methylpyridinium tetrafluoroborate] + CO
Settings	mass density, 293.15 K [kg/m3]	mass density, 303.15 K [kg/m3]	mass density, 313.15 K [kg/m3]	mass density, 323.15 K [kg/m3]	speed of sound, 293.15 K [m/s]	speed of sound, 303.15 K [m/s]	speed of sound, 313.15 K [m/s]	speed of sound, 323.15 K [m/s]
x1 = 0.0481	876.902	868.149	858.994	850.146	1203.1	1173.4	1143.9	1114.7
x1 = 0.1001	940.659	932.121	923.594	915.022	1271	1243.3	1215.7	1188.3
x1 = 0.1548	988.767	980.512	972.213	964.125	1330.9	1304.2	1277.6	1251.7
x1 = 0.2003	1019.3	1011.19	1003.35	995.225	1370	1344	1318.1	1292.4
x1 = 0.2487	1045.53	1037.61	1029.56	1021.63	1407.2	1381.6	1356	1330.8
x1 = 0.297	1066.65	1058.61	1050.84	1042.82	1433.6	1408.1	1382.9	1358
x1 = 0.4013	1101.04	1093.31	1085.48	1077.9	1482.7	1457.9	1433	1415
x1 = 0.4969	1123.82	1116.42	1108.81	1101.29	1514.2	1489.3	1464.9	1443.1
x1 = 0.5974	1142.04	1134.73	1127.47	1120.24	1538.7	1514.1	1489.9	1466.2
x1 = 0.6972	1156.18	1149.17	1142.08	1135	1557.9	1533.5	1509.5	1485.8
x1 = 0.8437	1172.39	1165.51	1158.69	1151.77	1580.4	1556.2	1532.6	1509.2
x1 = 0.8984	1177.43	1170.57	1163.79	1156.96	1587.2	1562.8	1539.3	1516
x1 = 0.9692	1183.29	1176.48	1169.74	1162.98	1595.6	1571.3	1547.5	1524.5
